Several values for one entry are separate records, joined by “and”; a condition that tells them apart may be missing. Equal entries are not always repeated. Inconclusive results and toxic doses are left out. Rule for the calls: active = survival T/C of 150% or more; inactive = T/C below 125% in these data.
System: P388 leukemia ip, CD2F1 mice, survival T/C
Experiment: NCI In Vivo Anticancer Drug Screen. Data for tumor model P388 Leukemia (intraperitoneal) in CD2F1 (CDF1) mice
Conditions: endpoint: median survival time, higher = longer survival
How it was run: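 Mice carrying the transplanted tumor received test compound or vehicle. Survival was recorded in each group, and the value is the treated-group measurement divided by that of the vehicle-treated control group.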

[1] = dose: 50.0 mg/kg/injection, schedule: Q01DX009 (ip), vehicle: saline with Tween-80
[2] = dose: 100.0 mg/kg/injection, schedule: Q01DX009 (ip), vehicle: saline with Tween-80
[3] = dose: 200.0 mg/kg/injection, schedule: Q01DX009 (ip), vehicle: saline with Tween-80
[4] = dose: 400.0 mg/kg/injection, schedule: Q01DX009 (ip), vehicle: saline with Tween-80
[5] = dose: 50.0 mg/kg/injection, schedule: Q01DX009 (ip), vehicle: saline
[6] = dose: 100.0 mg/kg/injection, schedule: Q01DX009 (ip), vehicle: saline
[7] = dose: 200.0 mg/kg/injection, schedule: Q01DX009 (ip), vehicle: saline
[8] = dose: 60.0 mg/kg/injection, schedule: Q01DX005 (ip), vehicle: saline with Tween-80
[9] = dose: 120.0 mg/kg/injection, schedule: Q01DX005 (ip), vehicle: saline with Tween-80
[10] = dose: 240.0 mg/kg/injection, schedule: Q01DX005 (ip), vehicle: saline with Tween-80
[11] = dose: 1.56 mg/kg/injection, schedule: Q01DX009 (ip), vehicle: saline
[12] = dose: 3.12 mg/kg/injection, schedule: Q01DX009 (ip), vehicle: saline

Measured: T/C

NC(=O)C1C2CCC(O2)C1C(=O)O (centres undefined)
inactive: dose: 1.56 mg/kg/injection, schedule: Q01DX005 (ip), vehicle: Klucel (hydroxypropylcellulose) (HPC) 99 % of control | dose: 3.12 mg/kg/injection, schedule: Q01DX005 (ip), vehicle: Klucel (hydroxypropylcellulose) (HPC) 97 % of control | dose: 6.25 mg/kg/injection, schedule: Q01DX005 (ip), vehicle: Klucel (hydroxypropylcellulose) (HPC) 95 % of control

COc1ccc(-c2cc(-c3ccccc3)c(-c3ccccc3)nn2)cc1
inactive: [1] 96 % of control | [2] 101 % of control | [3] 96 % of control

C/C(=N\NC(=S)N1CC(C)OC(C)C1)c1cnccn1 (centres undefined)
inactive: dose: 12.5 mg/kg/injection, schedule: Q01DX005 (ip), vehicle: saline with Tween-80 107 % of control | dose: 25.0 mg/kg/injection, schedule: Q01DX005 (ip), vehicle: saline with Tween-80 100 % of control | dose: 50.0 mg/kg/injection, schedule: Q01DX005 (ip), vehicle: saline with Tween-80 101 % of control and 97 % of control

COCCOC(=O)CCCCC(=O)OCCOC
inactive: [2] 100 % of control | dose: 100.0 mg/kg/injection, schedule: Q04DX003 (ip), vehicle: saline sonified 100 % of control | [3] 104 % of control | dose: 200.0 mg/kg/injection, schedule: Q04DX003 (ip), vehicle: saline sonified 100 % of control | [4] 109 % of control | dose: 400.0 mg/kg/injection, schedule: Q04DX003 (ip), vehicle: saline sonified 95 % of control

CCc1cccc(CC)c1N1C(=O)c2cccnc2C1=O
inactive: [5] 100 % of control | [6] 97 % of control | [7] 93 % of control

CC(C)(C)OC1COCCO1 (centres undefined)
inactive: [8] 102 % of control | [9] 99 % of control | [10] 93 % of control

CCOC(=O)c1ccccc1Nc1c(C(=O)OCC)cnc2cc3c(cc12)OCO3
inactive: dose: 60.0 mg/kg/injection, schedule: Q01DX005 (ip), vehicle: Klucel (hydroxypropylcellulose) (HPC) 106 % of control | dose: 120.0 mg/kg/injection, schedule: Q01DX005 (ip), vehicle: Klucel (hydroxypropylcellulose) (HPC) 98 % of control | dose: 240.0 mg/kg/injection, schedule: Q01DX005 (ip), vehicle: Klucel (hydroxypropylcellulose) (HPC) 97 % of control

O=C1CNC(=O)N1CCO
inactive: dose: 12.5 mg/kg/injection, schedule: Q04DX003 (ip), vehicle: saline 99 % of control | dose: 25.0 mg/kg/injection, schedule: Q04DX003 (ip), vehicle: saline 106 % of control | dose: 50.0 mg/kg/injection, schedule: Q04DX003 (ip), vehicle: saline 98 % of control | dose: 100.0 mg/kg/injection, schedule: Q04DX003 (ip), vehicle: saline 99 % of control | dose: 200.0 mg/kg/injection, schedule: Q04DX003 (ip), vehicle: saline 104 % of control | dose: 400.0 mg/kg/injection, schedule: Q04DX003 (ip), vehicle: saline 104 % of control

C=Cc1c(C)c2[nH]c1=CC1=NC(=CC3=NC(=CC4=C(C)/C(=C\NO)C(=N4)C=2)C(C)=C3CCC(=O)OC)C(CCC(=O)OC)=C1C
inactive: dose: 50.0 mg/kg/injection, schedule: Q01DX005 (ip), vehicle: Klucel (hydroxypropylcellulose) (HPC) 95 % of control | dose: 100.0 mg/kg/injection, schedule: Q01DX005 (ip), vehicle: Klucel (hydroxypropylcellulose) (HPC) 99 % of control | dose: 200.0 mg/kg/injection, schedule: Q01DX005 (ip), vehicle: Klucel (hydroxypropylcellulose) (HPC) 99 % of control

Nc1nc2c(C(=O)N3CCCC3)nnn2c2cccc(Cl)c12
inactive: [8] 107 % of control | [9] 106 % of control | [10] 106 % of control

CCN(CC)[P+](c1ccccc1O)(N(CC)CC)N(CC)CC
inactive: [11] 100 % of control | [12] 101 % of control

O=C(O)CCCCC1CCSS1 (centres undefined)
inactive: dose: 15.63 mg/kg/injection, schedule: Q01DX005 (ip), vehicle: Klucel (hydroxypropylcellulose) (HPC) 103 % of control | dose: 31.25 mg/kg/injection, schedule: Q01DX005 (ip), vehicle: Klucel (hydroxypropylcellulose) (HPC) 103 % of control | dose: 62.5 mg/kg/injection, schedule: Q01DX005 (ip), vehicle: Klucel (hydroxypropylcellulose) (HPC) 94 % of control | dose: 125.0 mg/kg/injection, schedule: Q01DX005 (ip), vehicle: Klucel (hydroxypropylcellulose) (HPC) 97 % of control

C[CH2][Pb]([CH2]C)([CH2]C)[O]C(=O)COc1ccccc1
inactive: dose: 1.5 mg/kg/injection, schedule: Q04DX003 (ip), vehicle: Klucel (hydroxypropylcellulose) (HPC) 100 % of control | dose: 3.0 mg/kg/injection, schedule: Q04DX003 (ip), vehicle: Klucel (hydroxypropylcellulose) (HPC) 100 % of control | dose: 6.0 mg/kg/injection, schedule: Q04DX003 (ip), vehicle: Klucel (hydroxypropylcellulose) (HPC) 106 % of control

O=C1CCN(Cc2ccccc2)C(=O)N1
inactive: [1] 100 % of control | [2] 105 % of control | [3] 100 % of control

O=C(CCn1c(CN2CCN(C/C=C/c3ccccc3)CC2)nc2ccccc21)c1ccccc1
inactive: dose: 50.0 mg/kg/injection, schedule: Q01DX009 (ip), vehicle: Klucel (hydroxypropylcellulose) (HPC) 104 % of control | dose: 100.0 mg/kg/injection, schedule: Q01DX009 (ip), vehicle: Klucel (hydroxypropylcellulose) (HPC) 100 % of control | dose: 200.0 mg/kg/injection, schedule: Q01DX009 (ip), vehicle: Klucel (hydroxypropylcellulose) (HPC) 111 % of control

Cc1ccc(C(=O)CC(=O)Nc2cc([N+](=O)[O-])ccc2OCCOc2ccc(C(C)(C)CC(C)(C)C)cc2)cc1
inactive: dose: 18.75 mg/kg/injection, schedule: Q04DX003 (ip), vehicle: saline sonified 109 % of control | dose: 37.5 mg/kg/injection, schedule: Q04DX003 (ip), vehicle: saline sonified 90 % of control | dose: 75.0 mg/kg/injection, schedule: Q04DX003 (ip), vehicle: saline sonified 109 % of control

CCOC(=O)/C(=C/Nc1ccc(OCc2ccccc2)cc1)NC(=O)c1ccccc1
inactive: [1] 87 % of control | [5] 86 % of control | [2] 86 % of control | [6] 86 % of control | [3] 87 % of control | [7] 88 % of control | [4] 97 % of control | dose: 400.0 mg/kg/injection, schedule: Q01DX009 (ip), vehicle: saline 97 % of control

CCCCCCNC(=O)CNC(=O)C=[N+]=[N-]
inactive: [1] 101 % of control | [2] 101 % of control | [3] 97 % of control

CC1(C)OCC(C2OC3OC(C)(C)OC3C2N=O)O1 (centres undefined)
inactive: dose: 94.5 mg/kg/injection, schedule: Q04DX002 (ip), vehicle: Klucel (hydroxypropylcellulose) (HPC) 103 % of control | dose: 189.0 mg/kg/injection, schedule: Q04DX002 (ip), vehicle: Klucel (hydroxypropylcellulose) (HPC) 96 % of control | dose: 378.0 mg/kg/injection, schedule: Q04DX002 (ip), vehicle: Klucel (hydroxypropylcellulose) (HPC) 90 % of control

CN1CCC(CNC(=O)CCCCCCCCC(=O)NCC2(c3ccccc3)CCN(C)CC2)(c2ccccc2)CC1
inactive: dose: 0.39 mg/kg/injection, schedule: Q01DX009 (ip), vehicle: saline 100 % of control | dose: 0.78 mg/kg/injection, schedule: Q01DX009 (ip), vehicle: saline 96 % of control | [11] 105 % of control | [12] 111 % of control

COc1ccc2c(c1)C[N+](C)(CCc1ccccc1)[B-]O2 (centres undefined)
inactive: dose: 50.0 mg/kg/injection, schedule: Q01DX005 (ip), vehicle: saline + Tween-80 + alcohol 91 % of control | dose: 100.0 mg/kg/injection, schedule: Q01DX005 (ip), vehicle: saline + Tween-80 + alcohol 93 % of control

From PubChem BioAssay AID330 (DTP/NCI, 2004)
